Laboratory results as given in patent publication US10533015B1, “Opioid receptor antagonist prodrugs” (Nirsum Laboratories, Inc., priority 2019, dated 2020).
Where two headings read alike, the source gives them in different places.

What was measured:
[1] = Polymorph screening of solid state drug substances; conditions: for Dry method and appearance: after stirring 50 °C 72 hours, dried solid; for XRPD results (Dried): dried solid after 50 °C 72 hours; for Visual observation 50° C. / Visual observation RT: target conc. 100 mg/ml
[2] = Plasma stability assay, rat plasma; assay type: in vitro ADME; conditions: 10 μM, 37° C.
Outline: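 In rat plasma, five time points up to 1440 min (0, 15, 120, 480, 1440) were analysed. Human, dog and cynomolgus plasma received 2 μM compound at 1% final solvent, 37 °C, over 0–120 min (0, 10, 30, 60, 120). Values are % parent left, HPLC-MS, n=2.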

[3] = not given; remark: listed apart in the source
DOR = target: T1, DOR (Homo sapiens, UniProt P41143); test: Opioid receptor binding assay, DOR ([3H]-DADLE); conditions: MaxDose 10000 nM
T1 construct: expressed in transfected cells
Experimental: Receptor binding assays were performed to assess the ability of compounds to inhibit binding to radiolabeled ligand.
The stable cell lines were established and prepared cell membrane obtained using these cell lines.
3) Assay Procedure 1) Transfer 1 μl of specified concentration compound to assay plate according to the plate map for nonspecific binding. Transfer 1 μl of DMSO to assay plate according to plate map for total binding. 2) Follow the plate map. Dispense 99 μl of membrane stocks into the plate. 3) Add 100 μl of radio ligand. 4) Seal the plates. Incubate at RT for 1 hour. 5) Soak the Unifilter-96 GF/C filter plates with 50 μl of 0.3% PEI per well for at least 0.5 hour at room temperature. 6) When binding assays are completed, filter the reaction mixture through GF/C plates using Perkin Elmer Filtermate Harvester, and then wash each plate for 4 times with cold wash buffer. 7) Dry the filter plates for 1 hour at 50 degrees. 8) After drying, seal the bottom of the filter plate wells using Perkin Elmer Unifilter-96 backing seal tape. Add 50 μl of Perkin Elmer Microscint 20 cocktail. Seal top of filter plates with Perkin Elmer TopSeal-A sealing film. 9) Count ^3H trapped on filter using Perkin Elmer MicroBeta2 Reader second day. 10) Analyze the data with GraphPad Prism 5. Calculate the “Inhibition [% Control]” using the equation: % Inh=(1-Background subtracted Assay value/Background subtracted HC value)*100. Results

[4] = Plasma stability assay, dog plasma; assay type: in vitro ADME; conditions: 2 μM, 37° C.
Experimental: (§1) Plasma stability determination of the test compounds in rat, dog, cynomolgus monkey and human plasma is performed using HPLC-MS. For rat, incubations are carried out in 96-well polypropylene plates in 5 aliquots of 70 μL each (one for each time point). […] Five time points are analyzed (0, 15, 120, 480 and 1440 min). […] All incubations are performed in duplicates. The samples are analyzed by HPLC-MS. The percentage of parent compound remaining after incubation in plasma is determined.

[5] = Plasma stability assay, monkey plasma; assay type: in vitro ADME, cynomolgus monkey; conditions: 2 μM, 37° C.
Experimental: as §1

[6] = Plasma stability assay, human plasma; assay type: in vitro ADME; conditions: 2 μM, 37° C.
Experimental: as §1

[7] = Liver S9 fraction stability, dog; assay type: in vitro ADME; conditions: dog liver S9, 1.0 mg/ml S9 protein, 2 μM, 37° C.
Experimental: (§2) Liver S9 fraction stability determination of the test compounds in dog, cynomolgus monkey and human is performed using HPLC-MS. Test compound (2 μM, 0.1% DMSO, 1% Methanol final concentration) was assessed for stability in a 50 μl phosphate buffer containing 1.0 mg/ml S9 protein from each of the three species and 5 mM D-saccharic acid-1, 4-lactone. Samples were incubated at 37° C. for 60 minutes and the % compound remaining was assessed.

[8] = Liver S9 fraction stability, monkey; assay type: in vitro ADME, cynomolgus monkey; conditions: monkey liver S9, 1.0 mg/ml S9 protein, 2 μM, 37° C.
Experimental: as §2

[9] = Liver S9 fraction stability, human; assay type: in vitro ADME; conditions: human liver S9, 1.0 mg/ml S9 protein, 2 μM, 37° C.
Experimental: as §2

[10] = cited from earlier work
[11] = heating temp. 60 °C, obs. temp. 25 °C
[12] = heating temp. 60 °C, obs. temp. 40 °C
[13] = heating temp. 40 °C, obs. temp. 40 °C

T1 sequence (P41143 whole entry): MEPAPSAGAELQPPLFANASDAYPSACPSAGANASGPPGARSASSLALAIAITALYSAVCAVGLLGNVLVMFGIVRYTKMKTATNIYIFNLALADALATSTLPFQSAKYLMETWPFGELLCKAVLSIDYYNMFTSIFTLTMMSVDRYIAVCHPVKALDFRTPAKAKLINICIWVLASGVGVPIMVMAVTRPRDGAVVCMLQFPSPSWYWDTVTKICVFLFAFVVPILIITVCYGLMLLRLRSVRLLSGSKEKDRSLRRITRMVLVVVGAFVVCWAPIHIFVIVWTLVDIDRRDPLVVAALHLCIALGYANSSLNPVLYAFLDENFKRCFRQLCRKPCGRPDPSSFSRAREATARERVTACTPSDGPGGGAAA

## C=C1CC[C@@]2(O)C3Cc4ccc(OC(=O)NC(C)(C)C)c5c4[C@@]2(CCN3CC2CC2)[C@H]1O5 [Compound 40, (4aS,7aS,12bS)-3-(cyclopropylmethyl)-4a-hydroxy-7-methylene-2,3,4,4a,5,6,7,7a-octahydro-1H-4,12-methanobenzofuro[3,2-e]isoquinolin-9-yl tert-butylcarbamate]
other
  melting point: 107.6 °C
[1]; Acetone
  Dry method and appearance: Evaporation/white powder
  XRPD results (Dried): Amorphous
  Visual observation 50° C.: Clear
  Visual observation RT: Slurry
[1]; EtOAc
  Dry method and appearance: Evaporation/white powder
  XRPD results (Dried): Pattern A
  Visual observation 50° C.: Clear
  Visual observation RT: Slurry
[1]; Heptane
  Dry method and appearance: Centrifugation/white powder
  XRPD results (Dried): Pattern A
  Visual observation 50° C.: Slurry
  Visual observation RT: Slurry
[1]; Isopropanol
  Dry method and appearance: Evaporation/oil
  XRPD results (Dried): Amorphous
  Visual observation 50° C.: Clear
  Visual observation RT: Slurry
[1]; MTBE
  Dry method and appearance: Evaporation/white powder
  XRPD results (Dried): Amorphous
  Visual observation 50° C.: Clear
  Visual observation RT: Clear

## C=C1CC[C@@]2(O)C3Cc4ccc(OC(=O)CCCCCCCCCCCCCCC)c5c4[C@@]2(CCN3CC2CC2)[C@H]1O5 [Compound 56, (4aS,7aS,12bS)-3-(cyclopropylmethyl)-4a-hydroxy-7-methylene-2,3,4,4a,5,6,7,7a-octahydro-1H-4,12-methanobenzofuro[3,2-e]isoquinolin-9-yl palmitate]
[2]; 0 min
  % remaining at time point: 100%
[2]; 15 min
  % remaining at time point: 73.1%
[2]; 120 min
  % remaining at time point: 56.7%
[2]; 480 min
  % remaining at time point: 35.8%
[2]; 1440 min
  % remaining at time point: 16.8%
other
  melting point: 48.95 °C
[3]; [11]
  Approximate Solubility (mg/mL) in Excipient: Cottonseed oil: <50 mg/mL
  Approximate Solubility (mg/mL) in Excipient: Sesame oil: <50 mg/mL
[3]; [12]
  Approximate Solubility (mg/mL) in Excipient: Cottonseed oil: 25 to 50 mg/mL
  Approximate Solubility (mg/mL) in Excipient: Ethanol: <40.4 mg/mL
  Approximate Solubility (mg/mL) in Excipient: Sesame oil: 25 to 50 mg/mL

## C=C1CC[C@@]2(O)C3Cc4ccc(OCOC(=O)CCCCCCCCCCCCC)c5c4[C@@]2(CCN3CC2CC2)[C@H]1O5 [Compound 45, (((4aS,7aS,12bS)-3-(cyclopropylmethyl)-4a-hydroxy-7-methylene-2,3,4,4a,5,6,7,7a-octahydro-1H-4,12-methanobenzofuro[3,2-e]isoquinolin-9-yl)oxy)methyl tetradecanoate]
DOR
  % Inh@MaxDose: 73.8%
[3]; [11]
  Approximate Solubility (mg/mL) in Excipient: Cottonseed oil: >402 mg/mL
  Approximate Solubility (mg/mL) in Excipient: Sesame oil: 267 to 288 mg/mL
[3]; [13]
  Equilibrium solubility (mg/mL) Water: <0.001 mg/mL

## C=C1CC[C@@]2(O)C3Cc4ccc(OC(=O)OCCCCCCCCCCCC)c5c4[C@@]2(CCN3CC2CC2)[C@H]1O5 [Compound 6, (4aS,7aS,12bS)-3-(cyclopropylmethyl)-4a-hydroxy-7-methylene-2,3,4,4a,5,6,7,7a-octahydro-1H-4,12-methanobenzofuro[3,2-e]isoquinolin-9-yl dodecyl carbonate]
[2]; 0 min
  % remaining at time point: 100%
[2]; 15 min
  % remaining at time point: 31.3%
[2]; 120 min
  % remaining at time point: 7.6%
[2]; 480 min
  % remaining at time point: 4%
[2]; 1440 min
  % remaining at time point: 1.6%
[4]; 0 min
  % remaining at time point: 100%
[4]; 15 min (head)
  % remaining at time point: 89.1%
[4]; 120 min (head)
  % remaining at time point: 96.9%
[4]; 480 min (head)
  % remaining at time point: 107.2%
[4]; 1440 min (head)
  % remaining at time point: 101.2%
[5]; 0 min
  % remaining at time point: 100%
[5]; 15 min (head)
  % remaining at time point: 88.7%
[5]; 120 min (head)
  % remaining at time point: 74.3%
[5]; 480 min (head)
  % remaining at time point: 68.4%
[5]; 1440 min (head)
  % remaining at time point: 70.1%
[6]; 0 min
  % remaining at time point: 100%
[6]; 15 min (head)
  % remaining at time point: 97.6%
[6]; 120 min (head)
  % remaining at time point: 102%
[6]; 480 min (head)
  % remaining at time point: 109.8%
[6]; 1440 min (head)
  % remaining at time point: 115.1%
[7]
  % remaining at 60 minutes: 17.1%
[8]
  % remaining at 60 minutes: 0%
[9]
  % remaining at 60 minutes: 5.3%
DOR
  % Inh@MaxDose: 70.9%
[3]; [11]
  Approximate Solubility (mg/mL) in Excipient: Cottonseed oil: >397 mg/mL
  Approximate Solubility (mg/mL) in Excipient: Sesame oil: >386 mg/mL
[3]; [13]
  Approximate Solubility (mg/mL) in Excipient: Ethanol: 120 to 170 mg/mL
  Approximate Solubility (mg/mL) in Excipient: Sesame oil: >402.8 mg/mL

## C=C1CC[C@@]2(O)C3Cc4ccc(OC(=O)OCCCCCCCCCCCCCCC)c5c4[C@@]2(CCN3CC2CC2)[C@H]1O5 [Compound 32, (4aS,7aS,12bS)-3-(cyclopropylmethyl)-4a-hydroxy-7-methylene-2,3,4,4a,5,6,7,7a-octahydro-1H-4,12-methanobenzofuro[3,2-e]isoquinolin-9-yl pentadecyl carbonate]
DOR
  % Inh@MaxDose: 43.2%
[3]; [11]
  Approximate Solubility (mg/mL) in Excipient: Cottonseed oil: >395.8 mg/mL
  Approximate Solubility (mg/mL) in Excipient: Sesame oil: >410 mg/mL

## C=C1CC[C@@]2(O)C3Cc4ccc(OCOC(=O)OCCCCCCCCCCCC)c5c4[C@@]2(CCN3CC2CC2)[C@H]1O5 [Compound 24, (((4aS,7aS,12bS)-3-(cyclopropylmethyl)-4a-hydroxy-7-methylene-2,3,4,4a,5,6,7,7a-octahydro-1H-4,12-methanobenzofuro[3,2-e]isoquinolin-9-yl)oxy)methyl dodecyl carbonate]
[2]; 0 min
  % remaining at time point: 100%
[2]; 15 min
  % remaining at time point: 32%
[2]; 120 min
  % remaining at time point: 11.8%
[2]; 480 min
  % remaining at time point: 8.2%
[2]; 1440 min
  % remaining at time point: 3%
[4]; 0 min
  % remaining at time point: 100%
[4]; 15 min (head)
  % remaining at time point: 94.7%
[4]; 120 min (head)
  % remaining at time point: 104.5%
[4]; 480 min (head)
  % remaining at time point: 115.7%
[4]; 1440 min (head)
  % remaining at time point: 116.2%
[5]; 0 min
  % remaining at time point: 100%
[5]; 15 min (head)
  % remaining at time point: 90.7%
[5]; 120 min (head)
  % remaining at time point: 93.5%
[5]; 480 min (head)
  % remaining at time point: 96.2%
[5]; 1440 min (head)
  % remaining at time point: 97.8%
[6]; 0 min
  % remaining at time point: 100%
[6]; 15 min (head)
  % remaining at time point: 94%
[6]; 120 min (head)
  % remaining at time point: 102.3%
[6]; 480 min (head)
  % remaining at time point: 105.3%
[6]; 1440 min (head)
  % remaining at time point: 112.5%
[7]
  % remaining at 60 minutes: 3.6%
[8]
  % remaining at 60 minutes: 3%
[9]
  % remaining at 60 minutes: 3.5%
[3]; [11]
  Approximate Solubility (mg/mL) in Excipient: Cottonseed oil: >403 mg/mL
  Approximate Solubility (mg/mL) in Excipient: Sesame oil: 338 to 368 mg/mL
[3]; [13]
  Equilibrium solubility (mg/mL) Water: <0.001 mg/mL

## Oc1ccc2c3c1O[C@H]1[C@H](O)CC[C@@]4(O)[C@@H](C2)N(CC2CC2)CC[C@]314 [6-β-naltrexol]
[10]
  time of peak plasma levels after oral dosing: within one hour
[10]; oral dosing
  mean elimination half-life: thirteen
